Experimental data reported in US20050203168A1, “Angiotensin converting enzyme inhibitor use for treatment and prevention of gastrointestinal disorders” (The Regents of the University of Michigan, priority 2004, published 2005).
Several values for one entry are separate records, joined by “and”; a condition that tells them apart may be missing. Equal entries are not always repeated.

Columns and labels:
[1] = test system: DSS-induced colitis; experiment: DSS-induced colitis mouse model; format: in vivo
Procedure: Male C57BL/6 specific-pathogen-free 2-month-old mice were kept in a 12-hour day/night environment maintained at 23° C. and a relative humidity of 40-60%. All mice drank 2.5% (w/v) DSS in water for 7 days followed by one day of plain water, while being fed normal mouse chow. Mice either received daily enalaprilat injection (0.015 mg/day, injection volume 0.5 ml, intraperitoneal) (n=6, “ACE-I”) or daily normal saline injection 0.5 ml (n=6, “Saline”). Body weight and hemoccult stool reaction were recorded. After the eight days of treatment, mice were euthanized with CO2, and colonic samples were immediately taken for histology and mucosal RNA extraction. Distal 1-cm colonic segments were excised, opened longitudinally, and fixed in 10% neutral buffered formalin. The remainder of the colon, including the cecum, was washed, cut into pieces, and mixed gently at 37° C. in EDTA/dithiothreitol buffer. The resulting mixture of epithelial cells and intraepithelial lymphocytes was then filtered through nylon wool and pelleted by centrifugation. Total RNA of the cell pellet was obtained using TRIZOL reagent and chloroform-isopropanol-ethanol extraction. Reverse transcription of RNA was done in the presence of RNAse inhibitor. RT product was then amplified with forward and reverse primers specific for ACE, TNF-α, and beta-actin, using real-time semiquantitative PCR. PCR results were analyzed by expressing ACE and TNF-α levels as a ratio to beta-actin levels, and were compared using a 2-tailed students' T test. Histologic grading of colitis was done by blinded observers using a standard scale for colitis severity. Histologic scores, as well as body weights and hemoccult results, were compared between groups using a 2-tailed homoscedastic T test.

[2] = test system: epithelial cell (EC) apoptosis; experiment: Epithelial cell apoptosis/necrosis by Annexin V / propidium iodide flow cytometry in SBS and Sham mice given ACE-I; format: in vivo, mouse; conditions: 0.6 mg/kg/day i.p., 1 week
Procedure: (§1) Animals: Male, 2 month old, C57BL/6J mice (Jackson Laboratories, Bar Harbor, Me.) were maintained in a 12-hour day-night rhythm at 23° C. and a relative humidity of 40%-60%. 24 hours before surgery chow was exchanged to micro-stabilized rodent liquid diet (TestDiet, Richmond, Ind.). Anesthesia was achieved using sodium pentobarbital (50 mg/kg body weight, intraperitoneally, i.p.). For some experiments B6.129P2-Ace^tm2Unc (ACE^−/−; lacking somatic ACE, generous gift from the Dr. O. Smithies, Duke University), or B6;129S6-Tnf^tm1Gkl (TNF-α-knockout mice, Jackson Labs) were used. Studies conformed, and were approved by the University Committee on Use and Care of Animals at the University of Michigan.
(§2) Short Bowel Syndrome Model: A 70% mid-small bowel resection was performed (i.e. bowel between 3.5 cm distal to the ligament of Treitz and 3.5 cm proximal to the ileocecal valve), followed by an end-to-end jejuno-ileal anastomosis with 7-0 monofilament, absorbable suture. Postoperatively a subcutaneous bolus of 3 ml 0.9% saline solution was given to maintain hydration status.
(§3) Sham operation: Mid-small bowel was transsected and re-anastomosed without bowel-resection.
Annexin V staining: Apoptosis was determined by flow cytometry based on the cell surface expression of phosphatidylserine using Annexin V staining (BD PharMingen, San Diego, Calif.). Propidium iodide was utilized to simultaneously monitor cell necrosis. Flow cytometry was performed by using standard techniques. Separation of EC from IEL was done by forward- and side-scatter gating characteristics. Further confirmation of EC and IEL purity was performed with specific staining of EC with antibody generated by a hybridoma G8.8 and a pan-lymphoid antibody (anti-CD45, PharMingen, San Diego, Calif.): Purity exceeded >98%.
Mucosal cell isolation: Isolation of mucosal cells was performed using standard protocols. […]
(§4) To further understand the relevance of ACE expression on EC apoptosis, ACE-inhibition was used. […] After 1 week, mice were killed, EC apoptotic rates assessed, and IEL mRNA and protein isolated.

[3] = test system: IEL TNF-α mRNA; experiment: IEL TNF-α mRNA by RT-PCR in SBS and Sham mice given ACE-I; format: in vivo, mouse; conditions: for IEL TNF-α mRNA: 0.6 mg/kg/day i.p. 7 days, ratio over β-actin mRNA
Procedure: as §2, §3
(§5) IEL purification: Isolation of purified IEL from EC was performed by direct magnetic separation. Magnetic beads conjugated with antibody to CD45 (pan-lymphoid marker) were used to segregate IEL from EC (BioMag SelectaPure Anti-Mouse CD 45R Antibody Particles, Polyscience Inc., Warrington, Pa.). Magnetic separation was performed twice to further deplete EC. Final IEL purity was greater than 99% by flow cytometry.
Isolation of total RNA: A guanidine isothiocyanate/chloroform extraction method was performed using Trizol (Gibco BRL, Gaithersburg, Md.) according to manufacturer's directions.
Reverse transcriptase polymerase chain reaction (RT-PCR): mRNA (poly-A positive) was reversed transcribed into cDNA following a standard protocol. Specific primers for selected gene sequences were designed. PCR and gel were run under standard conditions. To ensure that DNA product was generated at the exponential portion of the product curve, the following cycle numbers were used: 28 cycles for ACE; 32 cycles for Rap2 interacting protein and TNF-α; and 34 cycles for lipocalin 2, amphiregulin, leucine-rich-α2-glycoprotein, and angiotensin II receptors. Gel bands were analyzed by DNA sequencing to ensure the correct product. Kodak EDAS System (Rochester, N.Y.) was used for imaging and quantification. Results were expressed as the ratio of the investigated mRNA over the β-actin mRNA expression.
as §4

[4] = test system: IEL ACE mRNA; experiment: IEL ACE mRNA by real time PCR in SBS and Sham mice given ACE-I; format: in vivo, mouse; conditions: enalaprilat 0.6 mg/kg/day i.p. 7 days, ratio ACE-cDNA copies over β-actin-cDNA copies
Procedure: as §2, §3
as §5, with “Final IEL purity was greater than 99% by flow cytometry.” left out
Real time PCR: Real-time PCR was run to better quantify actual changes in ACE expression. cDNA was also used for real time PCR. The same primers for ACE and β-actin were used as for conventional PCR, SYBR Green I was utilized for fluorescence. […] Ct- values of ACE and β-actin were converted to numbers of cDNA copies, and results expressed as the ratio of ACE over β-actin expression.
as §4

[5] = test system: SBS mice; experiment: Histology (villus height, crypt depth) of mid-small bowel in SBS and Sham mice given ACE-I; format: in vivo, mouse; conditions: for Crypt depth / Villus height: 0.6 mg/kg/day i.p., 1 week postoperatively, 0.6 mg/kg/day
Procedure: as §1, §2, §3
Histology: A 0.5 cm segment of mid-small bowel was fixed in 10% formaldehyde, and processed for hematoxylin and eosin staining. Villus height and crypt depth were measured using a calibrated micrometer. Each measurement consisted of a mean of 16 different low power fields.
(§6) To further understand the relevance of ACE expression on EC apoptosis, ACE-inhibition was used. ACE-I (enalaprilat, 0.6 mg/kg/day i.p.) was given to both SBS (SBS+ACE-I), and sham operated (Sham+ACE-I) mice over a 7 day period, starting on the day after surgery. This latter group was studied as an additional control to assess the effects of ACE-I in the absence of a SBS. After 1 week, mice were killed, EC apoptotic rates assessed, and IEL mRNA and protein isolated.

[6] = test system: epithelial cell (EC) apoptosis; experiment: Epithelial cell apoptosis by TUNEL staining in SBS and Sham mice given ACE-I; format: in vivo, mouse; conditions: for EC Apoptosis (TUNEL analysis): 0.6 mg/kg/day i.p. 7 days
Procedure: as §1, §2, §3
TUNEL staining: Paraffin-embedded tissue was assayed with TUNEL (Terminal deoxynucleotidyl transferase Biotin-dUTP Nick End Labeling) staining, according to slight modification of manufacturer's instructions (ApopTag InSitu Apoptosis Detection Kit, Serological Corporation, Norcross, Ga.): slides were incubated with only ⅓ of the recommended concentration of TdT enzyme, in order to avoid over-staining. Apoptosis rate (percent of EC showing apoptosis) was assessed with TUNEL staining and by morphological criteria (nuclear margination, chromatin and cytoplasmic condensation, shrinkage from neighboring cells, and formation of apoptotic bodies with nuclear and cytoplasmic fragmentation). Each assessment of apoptosis consists of the mean of 8 different crypt-villus-complexes.
as §6

[7] = test system: IEL ACE protein; experiment: IEL ACE protein by immunoblot in SBS and Sham mice given ACE-I; format: in vivo, mouse; conditions: 0.6 mg/kg/day i.p. 7 days, ratio of ACE over β-actin protein
Procedure: as §2, §3
IEL purification: Isolation of purified IEL from EC was performed by direct magnetic separation. Magnetic beads conjugated with antibody to CD45 (pan-lymphoid marker) were used to segregate IEL from EC (BioMag SelectaPure Anti-Mouse CD 45R Antibody Particles, Polyscience Inc., Warrington, Pa.). […]
Immunoblot analysis: Protein was extracted from isolated IEL and immunoblots performed by using a Bio-Rad protein assay kit (Bio-Rad Laboratories, Hercules, Calif.), with standard methods. […] Expression for β-actin was determined in the same fashion by re-probing membranes with purified anti-mouse β-actin (1:12000, Sigma-Aldrich, St. Louis, Mo.). Results are expressed as the ratio of ACE over β-actin protein expression.
as §4

[8] = ACE-I administration to SBS mice

## C[C@H](N[C@@H](CCc1ccccc1)C(=O)O)C(=O)N1CCC[C@H]1C(=O)O [ACE-I, enalaprilat]
[1]; DSS + ACE-I, colonic mucosal ACE as a ratio to beta-actin levels
  ACE levels (mRNA): 0.08 ± 0.13
[1]; DSS + ACE-I, enalaprilat 0.015 mg/day i.p. daily
  Hemocult onset: 4.8 ± 0.8 days
[1]; DSS + ACE-I, enalaprilat 0.015 mg/day i.p. daily, 2.5% DSS 7 days
  Body Weight Loss: 16.6 ±+2.7%
[1]; DSS + ACE-I, enalaprilat 0.015 mg/day i.p. daily, after eight days
  Histologic Grade (histologic colitis score): 11.8 ± 1.5
[1]; DSS colitis, daily enalaprilat injection, saline controls: essentially complete loss of crypts
  Colon histology (FIG. 5): significant areas retaining colonic crypts as well as surface epithelial cells
[1]; compared to mice treated only with saline injection (FIG. 6)
  Time course of development of heme-positive stools: significantly delayed
[2]; SBS + ACE-I mice
  EC necrosis (propidium iodide): 5.2±2.6%
[2]; Sham + ACE-I mice
  EC necrosis (propidium iodide): 5.2±2.6%
[2]; Sham + ACE-I mice, flow cytometry
  EC apoptosis (Annexin V staining): 16.9±8.8%
[3]; SBS + ACE-I mice
  IEL TNF-α mRNA: 0.5 ± 0.07
[3]; Sham + ACE-I mice
  IEL TNF-α mRNA: 0.37 ± 0.07
[3]; mice with massive small bowel resection administered ACE-I
  Expression of TNF-α (FIG. 4): decreased expression of TNF-α
[4]; SBS + ACE-I mice
  IEL ACE mRNA: 0.63 ± 0.25
[4]; Sham + ACE-I mice
  IEL ACE mRNA: 0.66 ± 0.22
[5]; [8]
  Change in crypt depth compared to SBS mice: significant (P=0.02), additional increase in crypt depth
  Change in villus height compared to SBS mice: unchanged
[5]; SBS + ACE-I mice
  Crypt depth: 145±22 μm and 145 ± 22° μm
  Villus height: 552±56 μm
[5]; Sham + ACE-I mice
  Alterations in histological features: no significant alterations
  Crypt depth: 87±6 μm
  Villus height: 340±20 μm
[6]; SBS + ACE-I group
  Decline of apoptotic rate (TUNEL) compared to untreated SBS mice: 58%
[6]; SBS + ACE-I mice
  EC Apoptosis (TUNEL analysis): 1.8 ± 0.5%
[6]; Sham + ACE-I group
  Decrease of EC apoptosis (TUNEL) compared to untreated Sham mice: 48%
[6]; Sham + ACE-I mice
  EC Apoptosis (TUNEL analysis): 1.9 ± 0.4 %
[6]; after ACE-I administration, untreated SBS and Sham: crypts and lower villi
  Location of apoptotic cells (TUNEL): confined to the crypts
[7]; SBS + ACE-I mice
  IEL ACE protein: 0.14 ± 0.03
[7]; Sham + ACE-I mice
  IEL ACE protein: 0.13 ± 0.01
